Reference: patent US4338122A, “Biocidal 2-aryl-1,3-cyclopentanedione compounds and alkali metal and ammonium salts thereof” (Union Carbide Corporation, priority 1980, dated 1982)
Values after ≈ are worked out from the molar mass of the structure shown.

What was measured:
[1] = tested on: two-spotted mite (Tetranychus urticae (Koch)), adults and nymphal stages; experiment: Mite Foliage Spray Test (adult miticidal); assay type: in vivo; settings: Tetranychus urticae, foliar; Table II; read-out: Miticidal LD50, Adult (ppm required for a 50 percent kill of mites)
Procedure: (§1) Suspensions of the test compounds were prepared by dissolving one gram of compound in 50 milliliters of acetone in which had been dissolved 0.1 gram (10 percent of the weight of compound) of an alkylphenoxyethoxyethanol surfactant, as an emulsifying or dispersing agent. The resulting solution was mixed into 160 milliliters of water to give roughly 200 milliliters of a suspension containing the compound in finely divided form. The thus prepared stock suspension contained 0.5 percent by weight of compound. The test concentrations employed in the tests described herein below were obtained by diluting the stock suspension with water. The test procedures were as follows:
Adults and nymphal stages of the two-spotted mite (Tetranychus urticae (Koch)), reared on Tendergreen bean plants at 80°±5° F. and 50±5 percent relative humidity, were the test organisms. Infested leaves from a stock culture were placed on the primary leaves of two bean plants six to eight inches in height, growing in a two-and-a-half inch clay pot. 150-200 Mites, a sufficient number for testing, transferred from the excised leaves to the fresh plants in a period of twenty-four hours. Following the twenty-four hour transfer period, the excised leaves were removed from the infested plants. The test compounds were formulated by diluting the stock suspension with water to provide suspensions containing the desired amount of test compound per million parts of final formulation. The potted plants (one pot per compound) were placed on a revolving turntable and sprayed with 100-110 milliliters of test compound formulation by use of a DeVilbis spray gun set at 40 psi. air pressure. This application, which lasted 30 seconds, was sufficient to wet the plants to run-off. As a control, 100-110 milliliters of a water solution containing acetone and emulsifier in the same concentrations as the test compound formulation, but containing no test compound, were also sprayed on infested plants. The sprayed plants were held at 80°±5° F. and 50±5 percent relative humidity for four days, after which, a mortality count of motile forms was made on the leaves of the test plants. Any individual which was capable of locomotion upon prodding was considered living.
In these tests the pesticidal activity of the compounds against mites and mite eggs were rated as follows:
(§2) Tests were conducted in accordance with the procedures given at pages 32 to 37 supra. The results are expressed in the same manner as used in Table I, except with respect to miticidal activity. For mite adult and mite egg comparison purposes, results are given in parts per million (ppm) required for a 50 percent kill of mites or eggs, respectively.

[2] = tested on: Tomato; experiment: Post-emergent herbicidal test, tomato; assay type: in vivo; set-up: key: 1: no perceptible injury; 2: intermediate degrees of injury based upon the number and extent to which leaves were injured; 3: intermediate degrees of injury based upon the number and extent to which leaves were injured; 4: intermediate degrees of injury based upon the number and extent to which leaves were injured; 5: the plant was dead; settings: Table II; 2500 parts per million; after ten days
Procedure: as §1
(§3) Experiments were also conducted to determine the phytotoxicity of representative compositions with respect to healthy fresh plants. Solutions of the compounds were prepared as described above to provide a concentration of 2500 parts per million of the test compound. The test plants were sprayed in accordance with the procedure described above for the Mite Foliage Spray Test so as to deliver approximately 100 milliliters of test solutions to the leaves of each plant tested. The sprayed plants and controls were set aside for approximately one hour to allow the solutions to dry and were then placed in the greenhouse. After ten days the plants were visually inspected to determine the extent of foliage injury. A rating of 1 indicates no perceptible injury; 5 indicates the plant was dead and ratings of 2, 3 and 4 indicate intermediate degrees of injury based upon the number and extent to which leaves were injured.
as §2

[3] = tested on: Soybean; experiment: Post-emergent herbicidal test, soybean; assay type: in vivo; settings: Table II; 2500 parts per million; after ten days
Procedure: as §1, §3, §2

[4] = tested on: Perennial rye grass; experiment: Preliminary herbicide seed germination test (pre-emergent), rye grass; assay type: in vivo, Solium perenne; set-up: key: 5: no seedling emerged; 4: few seedlings emerged and/or very severe stunting; 3: moderate reduction in stand and/or moderate stunting; 2: very slight reduction in stand and/or slight stunting; 1: no injury; seedlings appear no different with respect to stand or growth than untreated controls; settings: Table II; ten to twelve days after application
Procedure: as §1
(§4) The following seeds were used in this test:
Perennial rye grass--Solium perenne
(§5) Two soil-seed mixtures were prepared as follows:
(§6) Each of the above mixtures was rolled separately in 5 gallon containers for approximately one-half hour on ball mill to insure uniform mixing of seeds and soil. For each compound four 3-inch pots were filled with soil to within 11/2 inches of top of pots. To two of these pots were added 70 cc. of Mixture I. To the remaining 2 pots were added 70 cc. of Mixture II. The seed-soil mixture was tamped firmly, and the pots were removed to the green-house and watered lightly. About 2 hours after planting, 25 milliliters of the test formulation were added to one pot containing Mixture I and one pot containing Mixture II. An equal volume of a water solution containing acetone and an emulsifier in the same concentration as the herbicidal mixture but without the candidate herbicide was also added to each of the soil-seed mixtures. These pots are used as check or control units. The test compounds were formulated by diluting the stock suspension with water to obtain the desired concentration of the compound in parts per million of the final formulation. Each compound was tested at the same concentration. […] Ratings were made according to the following designations:
as §2

[5] = tested on: Crabgrass; experiment: Preliminary herbicide seed germination test (pre-emergent), crabgrass; assay type: in vivo, Digitaria sanguinalis; set-up: key: 5: no seedling emerged; 4: few seedlings emerged and/or very severe stunting; 3: moderate reduction in stand and/or moderate stunting; 2: very slight reduction in stand and/or slight stunting; 1: no injury; seedlings appear no different with respect to stand or growth than untreated controls; settings: Table II; ten to twelve days after application
Procedure: as §1, §4
Crabgrass--Digitaria sanguinalis
as §5, §6, §2

[6] = tested on: Red root pigweed (Amaranthus); experiment: Preliminary herbicide seed germination test (pre-emergent), Amaranthus; assay type: in vivo, Amaranthus retroflexus; set-up: key: 5: no seedling emerged; 4: few seedlings emerged and/or very severe stunting; 3: moderate reduction in stand and/or moderate stunting; 2: very slight reduction in stand and/or slight stunting; 1: no injury; seedlings appear no different with respect to stand or growth than untreated controls; settings: Table II; ten to twelve days after application
Procedure: as §1, §4
Red root pigweed--Amaranthus retroflexus
as §5, §6, §2

Row | SMILES | LC50 [1] [µg/mL] | Post-Emergent Herbicidal, Tomato (injury rating) [2] | Post-Emergent Herbicidal, Soybean (injury rating) [3] | Pre-emergent Herbicidal, Rye (injury rating) [4] | Pre-emergent Herbicidal, Crabgrass (injury rating) [5] | Pre-emergent Herbicidal, Amaranthus (injury rating) [6]
1 | Cc1ccccc1C1C(=O)c2ccccc2C1=O [Reference I Page 3, Compound 1, reference compound] | 200 (≈ 846 µM) | 2 | 0 | 1 | 2 | 2
2 | Cc1ccc(C)c(C2C(=O)c3ccccc3C2=O)c1 [Reference II Page 146, Compound 6, reference compound] | 500 (≈ 2000 µM) | 1 | 0 | 1 | 1 | 1
3 | Cc1ccc(C2C(=O)c3ccccc3C2=O)c(C)c1 [Reference II Page 146, Compound 9, reference compound] | 40 (≈ 160 µM) | 1 | 0 | 4 | 3 | 3
